Tests used:
Type in all cases: in vivo
green foxtail (Se) = test: Test Example 2: herbicidal effects by upland soil treatment; conditions: dose 100 g active ingredient per 10 ares, examined on the 21st day after treatment, standards of Table 44;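 further: 0-5 growth inhibition grade; 5 = over 90%; 4 = 70-90%; 3 = 50-70%; 2 = 30-50%; 1 = 10-30%; 0 = under 10%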
Experimental: In a 80 cm^2 plastic pot, upland soil was filled, and seeds of barnyard grass (Ec) and green foxtail (Se) were sown and covered with soil. A wettable powder prepared in accordance with Formulation Example 1 was diluted with water and uniformly applied to the soil surface by means of a small size spray at a rate of 100 l per 10 ares, so that the dose of the active ingredient would be 100 g per 10 ares. Thereafter, cultivation was carried out in a green house, and on the 21st day after the treatment, the herbicidal effects were examined in accordance with the standards as identified in Table 44.

barnyard grass (Eo) [1] = test: Test Example 1: herbicidal effects by flooded paddy field treatment; set-up: herbicidal effects, Eo (barnyard grass):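 0-5 growth inhibition grade; 5 = over 90%; 4 = 70-90%; 3 = 50-70%; 2 = 30-50%; 1 = 10-30%; 0 = under 10%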; conditions: for Herbicidal effect index, Eo: dose 100 gai/10a, examined on 21st day after treatment, index 0-5 per Table 44; for herbicidal effects, Eo (barnyard grass): dose 100 g active ingredient per 10 ares, examined on the 21st day after treatment, standards of Table 44;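 on Herbicidal effect index, Eo: 0-5 growth inhibition grade; 5 = over 90%; 4 = 70-90%; 3 = 50-70%; 2 = 30-50%; 1 = 10-30%; 0 = under 10%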
Outline: (§1)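 Herbicidal effect is a graded score assigned 21 days after treatment. Application was one day after sowing into flooded (3 cm) puddled paddy soil, with diluted wettable powder dropped onto the water at 100 g active ingredient per 10 ares. Plants were kept in a greenhouse.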

rice (Or) = test: Test Example 4: selectivity for a crop plant by flooded paddy field treatment; set-up: scale not given here; conditions: rice transplanted at second leaf stage; for Or (effect on crop plant rice, index): dose 25 g active ingredient per 10 ares, examined on the 21st day after treatment; for Or (herbicidal effect index on crop): dose 25 gai/10a, 21st day after treatment, index per Table 44
Outline: (§2)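 Scores reflect visual herbicidal effect, graded on a standard scale 21 days after water-surface treatment. The product, a wettable powder diluted with water, went on dropwise at 25 g a.i. per 10 ares one day after flooding to 3 cm. Weeds grew from sown seed and rice was transplanted at second-leaf stage.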

barnyard grass (Eo) [2] = test: as above; set-up: scale not given here; conditions: for Eo (herbicidal effects, index): dose 25 g active ingredient per 10 ares, examined on the 21st day after treatment; for Eo (herbicidal effect index): barnyard grass, dose 25 gai/10a, 21st day after treatment, index per Table 44
Outline: as §2

monochoria (Mo) [3] = test: as above; set-up: scale not given here; conditions: for Mo (herbicidal effects, index): dose 25 g active ingredient per 10 ares, examined on the 21st day after treatment; for Mo (herbicidal effect index): monochoria, dose 25 gai/10a, 21st day after treatment, index per Table 44
Outline: as §2

monochoria (Mo) [4] = test: Test Example 1: herbicidal effects by flooded paddy field treatment; set-up: herbicidal effects, Mo (monochoria):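 0-5 growth inhibition grade; 5 = over 90%; 4 = 70-90%; 3 = 50-70%; 2 = 30-50%; 1 = 10-30%; 0 = under 10%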; conditions: for Herbicidal effect index, Mo: dose 100 gai/10a, examined on 21st day after treatment, index 0-5 per Table 44; for herbicidal effects, Mo (monochoria): dose 100 g active ingredient per 10 ares, examined on the 21st day after treatment, standards of Table 44;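 on Herbicidal effect index, Mo: 0-5 growth inhibition grade; 5 = over 90%; 4 = 70-90%; 3 = 50-70%; 2 = 30-50%; 1 = 10-30%; 0 = under 10%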
Outline: as §1

barnyard grass (Ec) = test: Test Example 2: herbicidal effects by upland soil treatment; set-up: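 0-5 growth inhibition grade; 5 = over 90%; 4 = 70-90%; 3 = 50-70%; 2 = 30-50%; 1 = 10-30%; 0 = under 10%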; conditions: dose 100 g active ingredient per 10 ares, examined on the 21st day after treatment, standards of Table 44
Outline: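 Pre-emergence test: barnyard grass and green foxtail sown in upland soil, then soil surface sprayed with wettable-powder formulation at 100 g active ingredient per 10 ares (100 l per 10 ares). Grown in greenhouse; herbicidal effect scored on a rating scale 21 days after treatment.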

Or (effect on crop plant rice, index) (rice (Or))	Structure (SMILES)	herbicidal effects, Se (green foxtail) (green foxtail (Se))	Herbicidal effect index, Eo (barnyard grass (Eo) [1])	Eo (herbicidal effects, index) (barnyard grass (Eo) [2])	Mo (herbicidal effects, index) (monochoria (Mo) [3])	Herbicidal effect index, Mo (monochoria (Mo) [4])	herbicidal effects, Ec (barnyard grass) (barnyard grass (Ec))	herbicidal effects, Eo (barnyard grass) (barnyard grass (Eo) [1])	Or (herbicidal effect index on crop) (rice (Or))	Eo (herbicidal effect index) (barnyard grass (Eo) [2])	Mo (herbicidal effect index) (monochoria (Mo) [3])	herbicidal effects, Mo (monochoria) (monochoria (Mo) [4])
0	Cc1ccc(CC(=O)N(C)C(c2cncnc2C(F)(F)F)C(C)C)cc1C (racemic) [Compound 1-72]	4	5	5	5	5	5					
	Cc1ccc(CC(=O)N(C)C(c2cncnc2C(F)(F)F)C2CCCC2)cc1 (racemic) [Compound 1-141]	5					5	5	1	5	5	5
1	CC(C)C(c1cncnc1C(F)(F)Cl)N(C)C(=O)Sc1ccccc1 (racemic) [Compound 1-17]	4	5	5	5	5	4					
	Cc1ccc(CC(=O)N(C)C(c2cncnc2C(C)C)C(C)C)cc1 (racemic) [Compound 1-131]	5					5	5	1	5	5	5
0	CC(C)C(c1cncnc1C(F)(F)F)N(C)C(=O)Cc1cccc([N+](=O)[O-])c1 (racemic) [Compound 1-74]	5	5	5	5	5	5					
	CCN(C(=O)Cc1ccc(F)cc1)C(c1cncnc1C(F)F)C(C)C (racemic) [Compound 1-169]	5					5	5	1	5	5	5
	CCN(C(=O)Cc1ccc(Cl)cc1)C(c1cncnc1C(F)F)C(C)C (racemic) [Compound 1-170]	5					5	5	1	5	5	5
	Cc1ccc(CC(=O)N(C)C(c2ccccc2)c2cncnc2C(F)(F)F)cc1 (racemic) [1-197]	5					5	5	0	5	5	5
0	CC(C)C(c1cncnc1C(F)(F)Cl)N(C)C(=O)Nc1ccccc1 (racemic) [Compound 1-38]	4	5	5	5	5	5					
	Cc1ccc(CC(=O)N(C)C(c2cncnc2C(F)F)C(C)C)cc1 (racemic) [Compound 1-166]	5					5	5	1	5	5	5
	CC(C)c1ncncc1C(C(C)C)N(C)C(=O)Cc1ccc(Cl)cc1 (racemic) [Compound 1-130]	5					5	5	1	5	5	5
	CC(C)C(c1cncnc1C(F)(F)F)N(C)C(=O)Cc1ccc2c(c1)OCO2 (racemic) [Compound 1-146]	4					4	5	1	5	5	5
	Cc1ccc(C(c2cncnc2C(F)(F)F)N(C)C(=O)Cc2ccccc2)cc1 (racemic) [1-225]	5					5	5	0	5	5	5
	CN(C(=O)Cc1ccc(Br)cc1)C(c1cncnc1C(F)(F)F)C1CCCC1 (racemic) [Compound 1-140]	5					5	5	0	5	5	5
	Cc1ccc(NC(=O)N(C)C(c2cncnc2C(F)(F)Cl)C(C)C)cc1 (stereo not drawn) [Compound 1-37, N-methyl-N-[2-methyl-1-(4-chlorodifluoromethylpyrimidin-5-yl)propyl]-N′-(4-methylphenyl)urea]	5	5			5	5					
	CN(C(=O)Cc1ccc(F)cc1)C(c1ccc(Cl)cc1)c1cncnc1C(F)(F)F (racemic) [1-222]	5					5	5				5
	CN(C(=O)Cc1ccc(Cl)cc1)C(c1ccccc1)c1cncnc1C(F)(F)F (racemic) [1-187]	5					5	5				5
	CC(C)C(c1cncnc1C1CC1)N(C)C(=O)Cc1ccc(F)cc1 (racemic) [Compound 1-101]	5	5			5	5					
	Cc1ccc(CC(=O)N(C)C(c2cncnc2C2CC2)C(C)C)cc1 (racemic) [Compound 1-102]	5	5			5	5					
	CN(C(=O)Cc1ccc(F)cc1)C(c1cncnc1C(F)(F)F)C1CC1 (racemic) [Compound 1-35]	5	5			5	5					
	CCC(c1cncnc1C(F)(F)F)N(C)C(=O)Cc1ccccc1 (racemic) [Compound 1-32]	5	5			5	5					

Source: patent US6806230B1, “Pyrimidine derivatives and herbicides containing them” (Kumiai Chemical Industry Co., Ltd., priority 1999, dated 2004)
